Reference: patent US4608390A, “Lipoxygenase inhibiting compounds” (Abbott Laboratories, priority 1985, dated 1986)

Tests used:
Format in all cases: biochemical
[1] = target: T1, 15-lipoxygenase (Glycine max, UniProt P08170); assay: 15-lipoxygenase inhibition (15-lipoxygenase obtained from soybean); settings: for inhibition at 10 µM: read-out: % Inhibition at Indicated Concentration, 15-lipoxygenase, 10 μM; for inhibition at 100 µM: read-out: % Inhibition at Indicated Concentration, 15-lipoxygenase, 100 μM
T1 construct: 15-lipoxygenase obtained from soybean; from tissue; host or cells: soybean
T1 sequence (P08170 1-839): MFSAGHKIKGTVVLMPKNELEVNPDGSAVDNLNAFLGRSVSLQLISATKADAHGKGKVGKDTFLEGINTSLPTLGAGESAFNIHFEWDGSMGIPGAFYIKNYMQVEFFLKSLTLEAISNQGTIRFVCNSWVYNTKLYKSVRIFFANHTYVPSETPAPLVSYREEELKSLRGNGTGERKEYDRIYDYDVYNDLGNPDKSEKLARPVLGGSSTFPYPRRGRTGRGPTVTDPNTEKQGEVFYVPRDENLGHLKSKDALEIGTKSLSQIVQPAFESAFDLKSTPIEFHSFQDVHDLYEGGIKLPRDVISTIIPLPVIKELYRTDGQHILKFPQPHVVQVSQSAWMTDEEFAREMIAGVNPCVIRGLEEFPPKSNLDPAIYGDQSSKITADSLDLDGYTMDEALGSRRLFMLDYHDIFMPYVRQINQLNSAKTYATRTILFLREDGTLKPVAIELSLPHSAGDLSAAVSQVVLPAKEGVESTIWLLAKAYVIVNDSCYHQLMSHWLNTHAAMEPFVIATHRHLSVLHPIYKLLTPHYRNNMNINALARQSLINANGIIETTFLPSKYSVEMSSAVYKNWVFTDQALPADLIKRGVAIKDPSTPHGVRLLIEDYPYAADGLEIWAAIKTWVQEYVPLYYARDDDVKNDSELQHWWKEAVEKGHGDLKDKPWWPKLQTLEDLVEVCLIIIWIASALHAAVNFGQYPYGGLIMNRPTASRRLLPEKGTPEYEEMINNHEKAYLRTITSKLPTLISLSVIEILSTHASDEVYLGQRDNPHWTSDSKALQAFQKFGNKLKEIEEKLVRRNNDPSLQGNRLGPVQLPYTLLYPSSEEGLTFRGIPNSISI
Description: (§1) The compounds of this invention are potent inhibitors of 5-, 12- and 15-lipoxygenase. An assay to determine 5-lipoxygenase activity was performed in incubations containing various concentrations of the test compound and the 20,000×G supernatant from 7.5×10^6 homogenized RBL-1 cells. Reactions were initiated by the addition of radiolabeled arachidonic acid and terminated by acidification and ether extraction. Reaction products were separated from nonconverted substrate by thin layer chromatography and measured by liquid scintillatiton spectroscopy. Inhibition of 5-lipoxygenase activity was calculated as the ratio of the amounts of product formed in the presence and absence of inhibitor.
(§2) The inhibitory activities of the compounds of this invention against 12- and 15-lipoxygenase can be determined in the foregoing assay in which 12-lipoxygenase obtained from human platelets, or 15-lipoxygenase obtained from soybean, is substituted for the 5-lipoxygenase-containing cell supernatant fraction.

[2] = target: T2, 12-lipoxygenase (Homo sapiens, UniProt P18054); assay: 12-lipoxygenase inhibition (12-lipoxygenase obtained from human platelets); settings: for inhibition at 10 µM: read-out: % Inhibition at Indicated Concentration, 12-lipoxygenase, 10 μM; for inhibition at 100 µM: read-out: % Inhibition at Indicated Concentration, 12-lipoxygenase, 100 μM
T2 construct: 12-lipoxygenase obtained from human platelets; from tissue; host or cells: human platelets
T2 sequence (P18054 1-663): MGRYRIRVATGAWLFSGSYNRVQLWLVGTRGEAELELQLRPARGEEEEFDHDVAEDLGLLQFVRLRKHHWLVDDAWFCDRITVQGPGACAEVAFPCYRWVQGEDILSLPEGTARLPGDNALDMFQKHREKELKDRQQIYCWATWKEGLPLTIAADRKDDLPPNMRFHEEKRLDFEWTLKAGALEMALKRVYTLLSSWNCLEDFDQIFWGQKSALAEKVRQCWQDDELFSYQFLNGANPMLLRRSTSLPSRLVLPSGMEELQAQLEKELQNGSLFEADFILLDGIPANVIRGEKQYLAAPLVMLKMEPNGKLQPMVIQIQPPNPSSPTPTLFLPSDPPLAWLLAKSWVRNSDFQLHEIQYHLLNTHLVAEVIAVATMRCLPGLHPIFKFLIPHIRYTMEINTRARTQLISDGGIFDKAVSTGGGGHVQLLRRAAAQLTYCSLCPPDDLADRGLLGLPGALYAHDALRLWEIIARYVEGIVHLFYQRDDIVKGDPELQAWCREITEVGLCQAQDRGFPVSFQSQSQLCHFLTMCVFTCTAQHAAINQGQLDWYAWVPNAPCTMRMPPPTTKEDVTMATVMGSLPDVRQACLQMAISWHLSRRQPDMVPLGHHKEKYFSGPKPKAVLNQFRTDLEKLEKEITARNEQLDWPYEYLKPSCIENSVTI
Description: as §1, §2

[3] = target: T3, 5-lipoxygenase (Rattus norvegicus, UniProt P12527); assay: 5-Lipoxygenase IC50 determination (20,000×G supernatant of homogenized RBL-1 cells, radiolabeled arachidonic acid); settings: RBL-1 cell 20,000×G supernatant
T3 construct: 20,000×G supernatant from 7.5×10^6 homogenized RBL-1 cells; endogenous in cells; host or cells: RBL-1 cells (20,000xG supernatant of homogenate)
T3 sequence (P12527 1-673): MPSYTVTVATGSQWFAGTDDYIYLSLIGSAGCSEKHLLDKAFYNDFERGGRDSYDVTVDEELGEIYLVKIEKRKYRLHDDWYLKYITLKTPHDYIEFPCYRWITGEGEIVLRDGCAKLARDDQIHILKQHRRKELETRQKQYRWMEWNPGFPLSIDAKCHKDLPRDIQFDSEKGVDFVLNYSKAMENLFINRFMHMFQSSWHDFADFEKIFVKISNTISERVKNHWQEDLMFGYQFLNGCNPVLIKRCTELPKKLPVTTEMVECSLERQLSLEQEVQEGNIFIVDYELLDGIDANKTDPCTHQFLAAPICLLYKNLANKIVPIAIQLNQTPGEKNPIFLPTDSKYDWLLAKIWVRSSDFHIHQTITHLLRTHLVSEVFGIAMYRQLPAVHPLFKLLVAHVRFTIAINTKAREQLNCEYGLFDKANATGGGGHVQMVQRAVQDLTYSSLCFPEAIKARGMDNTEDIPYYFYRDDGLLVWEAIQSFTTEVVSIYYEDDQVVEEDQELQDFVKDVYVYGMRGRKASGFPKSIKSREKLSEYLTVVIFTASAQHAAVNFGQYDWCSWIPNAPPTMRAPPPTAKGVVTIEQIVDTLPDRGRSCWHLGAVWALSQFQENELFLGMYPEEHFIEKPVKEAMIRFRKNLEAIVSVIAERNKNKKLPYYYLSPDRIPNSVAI
Description: Reactions were initiated by the addition of radiolabeled arachidonic acid and terminated by acidification and ether extraction. Reaction products were separated from nonconverted substrate by thin layer chromatography and measured by liquid scintillatiton spectroscopy. Inhibition of 5-lipoxygenase activity was calculated as the ratio of the amounts of product formed in the presence and absence of inhibitor. […]

| SMILES | inhibition at 10 µM [1] | inhibition at 100 µM [1] | inhibition at 10 µM [2] | inhibition at 100 µM [2] | IC50 [3] |
| --- | --- | --- | --- | --- | --- |
| O=C(C=Cc1ccc2ccccc2c1)NO [Example 1, 3-(2-naphthyl)acrylohydroxamic acid] | 2% | 19% | 92% | 100% |  |
| CC(=CC(=O)N(C)O)c1ccc2ccccc2c1 [Example 12, 3,N-dimethyl-3-(2-naphthyl)acrylohydroxamic acid] | 37% | 88% |  |  |  |
| O=C(C=Cc1ccc2ccccc2c1)N(O)c1ccccc1 [Example 5, N-phenyl 3-(2-naphthyl)acrylohydroxamic acid] | 22% | 30% | 82% |  | 0.2 µM |
| CC(C)N(O)C(=O)C=Cc1ccc2ccccc2c1 [Example 3, N-isopropyl 3-(2-naphthyl)acrylohydroxamic acid] | 31% | 63% | 75% | 84% | 0.15 µM |
| CN(O)C(=O)C(=Cc1ccc2ccccc2c1)c1ccc(Cl)cc1 [Example 10, N-methyl-3-(2-naphthyl)-2-(4-chlorophenyl)acrylohydroxamic acid] |  |  | 98% |  |  |
| CC(=Cc1ccc2ccccc2c1)C(=O)N(C)O [Example 7, 2,N-dimethyl-3-(2-naphthyl)acrylohydroxamic acid] | 37% | 88% |  |  |  |
| CN(O)C(=O)C(=Cc1ccc2ccccc2c1)c1ccccc1 [Example 8, N-methyl-3-(2-naphthyl)-2-phenyl acrylohydroxamic acid] | 38% | 62% |  |  |  |
| CC(=Cc1ccc2ccccc2c1)C(=O)NO [Example 6, 2-methyl-3-(2-naphthyl)acrylohydroxamic acid] | 45% | 100% |  |  |  |
| CN(O)C(=O)C=Cc1ccc2ccccc2c1 [Example 2, N-methyl 3-(2-naphthyl)acrylohydroxamic acid] | 43% | 83% | 88% |  | 0.26 µM |
| O=C(C=Cc1ccc2ccccc2c1)N(O)C1CCCCC1 [Example 4, N-cyclohexyl 3-(2-naphthyl)acrylohydroxamic acid] | 43% | 83% | 66% |  | 0.26 µM |

Now from value to compound:

| inhibition at 10 µM [1] | inhibition at 100 µM [1] | inhibition at 10 µM [2] | inhibition at 100 µM [2] | IC50 [3] | SMILES |
| --- | --- | --- | --- | --- | --- |
| 19% | 49% | 81% | 97% |  | CN(O)C(=O)C=Cc1cc2ccccc2cc1[N+](=O)[O-] [Example 13, N-methyl-3-(3-nitro-2-naphthyl)acrylohydroxamic acid] |
| 12% | 31% |  |  | 9.7 µM | O=C(CCc1ccc2ccccc2c1)NO [Example 18, 3-(2-naphthyl)propiohydroxamic acid] |
| 29% | 88% | 82% | 100% | 0.2 µM | CN(O)C(=O)C=Cc1cccc2ccccc12 [Example 15, N-methyl-3-(1-naphthyl)acrylohydroxamic acid] |
| 19% | 33% | 82% | 99% | 2.9 µM | Cc1ccc2ccc(CCC(=O)NO)cc2c1 [Example 19, 3-(7-methyl-2-napthalene)propiohydroxamic acid] |
| 59% | 65% | 93% | 98% | 0.51 µM | CCCCCC=Cc1ccc2ccc(C=CC(=O)N(C)O)cc2c1 [Example 14, N-methyl-3-[7-(1-heptenyl)-2-naphthyl]acrylohydroxamic acid] |
|  |  |  |  | 0.13 µM | CN(O)C(=O)C=Cc1ccc([N+](=O)[O-])c2ccccc12 [Example 16, N-methyl-3-(4-nitro-1-naphthyl)acrylohydroxamic acid] |
|  |  |  |  | 1.6 µM | O=C(CCC/C=C\c1ccc2ccccc2c1)NO [Example 17, Z-6-(2-naphthyl)hex-5-enohydroxamic acid] |
